From ChEMBL document CHEMBL5233241, “A medicinal chemistry perspective of drug repositioning: Recent advances and challenges in drug discovery” (Eur J Med Chem, 2020)
Structures can show the parent of a compound that is named as a salt.

Tests used:
Tyrosinase = molecular target: T1, Tyrosinase (Agaricus bisporus, UniProt O42713); assay: Inhibition of mushroom tyrosinase
T1 sequence (O42713 whole entry): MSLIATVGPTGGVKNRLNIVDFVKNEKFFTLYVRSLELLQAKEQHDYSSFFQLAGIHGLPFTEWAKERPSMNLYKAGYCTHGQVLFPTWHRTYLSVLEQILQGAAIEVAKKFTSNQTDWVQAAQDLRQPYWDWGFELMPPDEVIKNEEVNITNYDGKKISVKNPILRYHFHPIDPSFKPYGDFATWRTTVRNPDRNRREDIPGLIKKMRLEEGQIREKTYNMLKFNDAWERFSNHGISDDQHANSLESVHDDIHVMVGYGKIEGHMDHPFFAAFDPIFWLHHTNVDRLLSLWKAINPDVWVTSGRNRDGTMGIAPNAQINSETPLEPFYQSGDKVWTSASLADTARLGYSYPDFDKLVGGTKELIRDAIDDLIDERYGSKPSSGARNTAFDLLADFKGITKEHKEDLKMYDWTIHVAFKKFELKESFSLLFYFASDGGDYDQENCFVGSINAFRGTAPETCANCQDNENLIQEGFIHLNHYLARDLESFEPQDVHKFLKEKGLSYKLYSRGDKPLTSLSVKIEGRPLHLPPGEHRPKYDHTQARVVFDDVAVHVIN

Plasmodium = assay: Antimalarial activity against Plasmodium; format: functional, organism-based
[1] = Cytotoxicity against human Huh-7 cells; format: toxicity, cell-based
[2] = system: Middle East respiratory syndrome-related coronavirus; assay: Antiviral activity against MERS-CoV/KOR/KNIH/002_05_2015 infected in human Huh-7 cells assessed as reduction in virus-induced cytopathic effect incubated for 3 days by CellTiter 96 aqueous one solution cell proliferation assay; format: functional, organism-based; conditions: KOR/KNIH/002_05_2015, Huh-7, 72 h
Plasmodium falciparum = assay: Antimalarial activity against Plasmodium falciparum W2; format: functional, organism-based
B16-F10 = assay: Inhibition of melanin production in mouse B16-F10 cells assessed as reduction in melanin content at 50 uM relative to control; format: functional
[3] = system: Middle East respiratory syndrome-related coronavirus; assay: Antiviral activity against MERS-CoV isolate EMC/2012 infected in human Huh-7 cells assessed as reduction in virus-induced cytopathic effect incubated for 2 days by MTS assay; format: functional, organism-based; conditions: EMC/2012, Huh-7, 48 h
SARS-CoV [4] = assay: Antiviral activity against SARS-CoV isolate Frankfurt-1 infected in Vero E6 cells assessed as reduction in virus-induced cytopathic effect incubated for 3 days by MTS assay; format: functional, organism-based; conditions: Severe acute respiratory syndrome-related coronavirus, Frankfurt-1, Vero C1008, 72 h
Human coronavirus 229E [5] = assay: Antiviral activity against hCoV-229E expressing GFP infected in human Huh-7 cells assessed as reduction in virus-induced cytopathic effect incubated for 24 hrs by MTS assay; format: functional, organism-based; conditions: Huh-7, 24 h
[6] = Cytotoxicity against human COV362 cells incubated for 120 hrs by SRB assay; format: functional, cell-based; conditions: COV362, 120 h
[7] = Cytotoxicity against human OVSAHO cells incubated for 72 hrs by SRB assay; format: functional, cell-based
[8] = Cytotoxicity against human COV318 cells incubated for 120 hrs by SRB assay; format: functional, cell-based; conditions: COV318, 120 h
OVCAR-3 = assay: Cytotoxicity against human OVCAR-3 cells incubated for 72 hrs by SRB assay; format: functional, cell-based; conditions: OVCAR-3, 72 h
OVCAR-4 = assay: Cytotoxicity against human OVCAR-4 cells incubated for 72 hrs by SRB assay; format: functional, cell-based; conditions: OVCAR-4, 72 h
Mus musculus [9] = assay: Anti-alzheimer activity against APP/PSEN1 transgenic mouse model assessed as fold reduction in amyloid beta plaques at 10 mg/kg administered intranasally every other day for 2 months; format: functional; conditions: route nas, 1460 h
[10] = Inhibition of melanin production in mouse B16 cells assessed as reduction in melanin content at up to 20 uM relative to control; format: functional
Human coronavirus 229E [11] = assay: Antiviral activity against hCoV-229E; format: functional, organism-based
SARS-CoV [12] = assay: Antiviral activity against SARS-CoV; format: functional, organism-based; conditions: Severe acute respiratory syndrome-related coronavirus
Mus musculus [13] = assay: Anti-alzheimer activity against young APP/PS1 mouse model assessed as reduction in amyloid beta (1 to 40 residues) level at 100 mg/kg, po administered daily and measured for 14 days; format: functional; set-up: scale not given: the % may be the effect or the level left; conditions: time 14 day
Mus musculus [14] = assay: Anti-alzheimer activity against old APP/PS1 mouse model assessed as reduction in amyloid beta (1 to 42 residues) level at 100 mg/kg, po administered daily and measured for 14 days; format: functional; set-up: scale not given: the % may be the effect or the level left; conditions: time 14 day
Mus musculus [15] = assay: Anti-alzheimer activity against APP/PS1 mouse model assessed as reduction in insoluble amyloid beta level at 100 mg/kg, po administered daily and measured for 90 days; format: functional; set-up: scale not given: the % may be the effect or the level left; conditions: time 90 day
Mus musculus [16] = assay: Anti-alzheimer activity against young APP/PS1 mouse model assessed as reduction in amyloid beta (1 to 42 residues) level at 100 mg/kg, po administered daily and measured for 14 days; format: functional; set-up: scale not given: the % may be the effect or the level left; conditions: time 14 day
Mus musculus [17] = assay: Anti-alzheimer activity against old APP/PS1 mouse model assessed as reduction in amyloid beta (1 to 40 residues) level at 100 mg/kg, po administered daily and measured for 14 days; format: functional; set-up: scale not given: the % may be the effect or the level left; conditions: time 14 day
Dengue virus = assay: Antiviral activity against DENV assessed as inhibition of viral replication relative to control; format: functional
[18] = Inhibition of Wnt signalling in human BT-20 cells; format: cell-based
[19] = Inhibition of Wnt signalling in HEK293T cells; format: cell-based; conditions: Homo sapiens, HEK-293T

SMILES: O=c1cc[nH]c(=S)[nH]1 [THIOURACIL]
- IC50 (Tyrosinase): 128 µM

SMILES: N=C(N)c1ccc(OCCCCCOc2ccc(C(=N)N)cc2)cc1
- IC50 (Plasmodium): < 0.5 µM

SMILES: CC(=O)c1ccc2c(c1)N(CCCN1CCN(CCO)CC1)c1ccccc1S2 [ACETOPHENAZINE]
- CC50 [1]: 23.6 µM
- EC50 [2]: 11.2 µM

SMILES: O=C(c1ccc(OCCN2CCCCC2)cc1)c1c(-c2ccc(O)cc2)sc2cc(O)ccc12 [RALOXIFENE HYDROCHLORIDE]
- IC50 (Plasmodium): < 0.5 µM

SMILES: CCN(CC)CCOc1ccc(/C(=C(/Cl)c2ccccc2)c2ccccc2)cc1 [ENCLOMIPHENE CITRATE]
- IC50 (Plasmodium): 0.22 µM

SMILES: COc1ccc(-c2nc(-c3cc(C(F)(F)F)cc(C(F)(F)F)c3)n(Cc3ccc(C(N)=O)cc3)c2-c2ccc(OC)cc2)cc1
- EC50 (Plasmodium falciparum): 4.5 µM

SMILES: CCOC(=O)n1ccn(C)c1=S [CARBIMAZOLE]
- IC50 (Tyrosinase): 186 µM

SMILES: CN1CCC[C@@H]1CCO[C@](C)(c1ccccc1)c1ccc(Cl)cc1 [CLEMASTINE FUMARATE]
- IC50 (Plasmodium): 2.2 µM

SMILES: C/C=C/C[C@@H](C)[C@@H](O)[C@H]1C(=O)N[C@@H](CC)C(=O)N(C)CC(=O)N(C)[C@@H](CC(C)C)C(=O)N[C@@H](C(C)C)C(=O)N(C)[C@@H](CC(C)C)C(=O)N[C@@H](C)C(=O)N[C@H](C)C(=O)N(C)[C@@H](CC(C)C)C(=O)N(C)[C@@H](CC(C)C)C(=O)N(C)[C@@H](C(C)C)C(=O)N1C [CYCLOSPORINE]
- IC50 (Plasmodium): 1.7 µM

SMILES: COc1ccc2[nH]c([S+]([O-])Cc3ncc(C)c(OC)c3C)nc2c1 (stereo unspecified) [OMEPRAZOLE]
- IC50 (Plasmodium): < 1 µM

SMILES: Nc1nc2nc[nH]c2c(=S)[nH]1 [THIOGUANINE]
- Ki (Tyrosinase): 52 µM
- inhibition at 50 µM (B16-F10): 57%

SMILES: OCCOCCN1CCN(C(c2ccccc2)c2ccc(Cl)cc2)CC1 (stereo unspecified) [HYDROXYZINE]
- CC50 [1]: > 50 µM
- EC50 [2]: 14.4 µM

SMILES: CN(C)CCCN1c2ccccc2Sc2ccc(Cl)cc21 [CHLORPROMAZINE]
- EC50 [3]: 4.9 µM
- EC50 (SARS-CoV [4]): 8.8 µM
- EC50 (Human coronavirus 229E [5]): 2.5 µM

SMILES: C[C@]12C=CC(=O)C=C1CC[C@@H]1[C@@H]2[C@@H](O)C[C@@]2(C)[C@H]1CC[C@]2(O)C(=O)CO [PREDNISOLONE]
- IC50 [6]: 1.1 µM
- IC50 [7]: 1.1 µM
- IC50 [8]: 1.1 µM
- IC50 (OVCAR-3): 1.1 µM
- IC50 (OVCAR-4): 1.1 µM

SMILES: Cn1cnc([N+](=O)[O-])c1Sc1ncnc2nc[nH]c12 [AZATHIOPRINE]
- Ki (Tyrosinase): > 1000 µM

SMILES: CN(C)C(=O)C(CCN1CCC(O)(c2ccc(Cl)cc2)CC1)(c1ccccc1)c1ccccc1 [LOPERAMIDE]
- EC50 [3]: 4.8 µM
- EC50 (SARS-CoV [4]): 5.9 µM
- EC50 (Human coronavirus 229E [5]): 4 µM

SMILES: CCCCc1nc(Cl)c(CO)n1Cc1ccc(-c2ccccc2-c2nnn[nH]2)cc1 [LOSARTAN]
- fold change (FC) (Mus musculus [9]): 3.7

SMILES: CC(=O)Nc1ccc(/C=N/NC(N)=S)cc1 [AMITHIOZONE]
- IC50 (Tyrosinase): 14 µM

SMILES: COc1ccc2c(c1)N(C[C@H](C)CN(C)C)c1ccccc1S2 [LEVOMEPROMAZINE]
- CC50 [1]: 24.5 µM
- EC50 [2]: 2.5 µM

SMILES: CCN(CC)Cc1cc(Nc2ccnc3cc(Cl)ccc23)ccc1O
- EC50 [2]: 2.1 µM

SMILES: CN1CCN(c2nc(C3=C(c4c[nH]c5ccccc45)C(=O)NC3=O)c3ccccc3n2)CC1 [SOTRASTAURIN]
- CC50 [1]: > 50 µM
- EC50 [2]: 9.7 µM

SMILES: COc1ccc(C2=NC(c3ccc(Cl)cc3)C(c3ccc(Cl)cc3)N2C(=O)N2CCNC(=O)C2)c(OC(C)C)c1 (stereo unspecified)
- CC50 [1]: 26.8 µM
- EC50 [2]: 36.9 µM

SMILES: COc1ccc2[nH]c([S@@+]([O-])Cc3ncc(C)c(OC)c3C)nc2c1
- IC50 (Plasmodium): 0.29 µM

SMILES: Cc1cc(=O)[nH]c(=S)[nH]1 [METHYLTHIOURACIL]
- IC50 (Tyrosinase): 142 µM

SMILES: OC[C@H]1O[C@@H](n2cnc3c(S)ncnc32)[C@H](O)[C@@H]1O [THIOINOSINE]
- Ki (Tyrosinase): 8 µM

SMILES: N=C(N)N/N=C1C=C/C(=N\NC(N)=S)C=C\1 [AMBAZONE]
- inhibition (INH) [10]: 20%
- IC50 (Tyrosinase): 15 µM

SMILES: CCCc1nc2c(C)cc(-c3nc4ccccc4n3C)cc2n1Cc1ccc(-c2ccccc2C(=O)O)cc1
- IC50 (Plasmodium): 0.025 µM

SMILES: CN1CCN(CCOc2cc(OC3CCOCC3)c3c(Nc4c(Cl)ccc5c4OCO5)ncnc3c2)CC1 [SARACATINIB]
- CC50 [1]: > 50 µM
- EC50 (Human coronavirus 229E [11]): 5.1 µM
- EC50 (SARS-CoV [12]): 2.4 µM

SMILES: CCN(CC)CCCC(C)Nc1ccnc2cc(Cl)ccc12 (stereo unspecified) [CHLOROQUINE]
- EC50 [3]: 3 µM
- EC50 (SARS-CoV [4]): 4.1 µM

SMILES: Sc1ncnc2nc[nH]c12 [MERCAPTOPURINE ANHYDROUS]
- Ki (Tyrosinase): 16 µM

SMILES: CN(C)CC/C=C1\c2ccccc2CSc2ccccc21 [DOTHIEPIN HYDROCHLORIDE]
- CC50 [1]: 28.9 µM
- EC50 [2]: 3.4 µM

SMILES: Cn1cc[nH]c1=S [METHIMAZOLE]
- IC50 (Tyrosinase): 114 µM

SMILES: Cc1cccc(C)c1OCC(=O)N[C@@H](Cc1ccccc1)[C@@H](O)C[C@H](Cc1ccccc1)NC(=O)[C@H](C(C)C)N1CCCNC1=O [LOPINAVIR]
- EC50 [3]: 8 µM

SMILES: C=C(c1ccc(C(=O)O)cc1)c1cc2c(cc1C)C(C)(C)CCC2(C)C [BEXAROTENE]
- Activity (Mus musculus [13]): 25%
- Activity (Mus musculus [14]): 25%
- Activity (Mus musculus [15]): 30%
- Activity (Mus musculus [16]): 25%
- Activity (Mus musculus [17]): 25%

SMILES: C=C[C@H]1CN2CC[C@H]1C[C@H]2[C@H](O)c1ccnc2ccc(OC)cc12 [QUININE]
- inhibition (INH) (Dengue virus): 80%

SMILES: CCCc1cc(=O)[nH]c(=S)[nH]1 [PROPYLTHIOURACIL]
- IC50 (Tyrosinase): 170 µM

SMILES: CC(C)/N=c1\cc2n(-c3ccc(Cl)cc3)c3ccccc3nc-2cc1Nc1ccc(Cl)cc1 [CLOFAZIMINE]
- IC50 [18]: 7 µM
- IC50 [19]: 6 µM
